# Results taken from ChEMBL document CHEMBL3507680, “University of Dundee, Gates Library screen for HepG2 cell viability”.
# Assay: Human HepG2 cell viability assay in 384 well format
# Type: toxicity, cell-based
# Design: dose 125 nL, time 70.5 hour; concentration not given beside the values
# Details: HepG2 cells, read-out: Inhibition
row,SMILES,cytotoxicity at 70.5 h
1,C[C@@H]1CN(CC(C)(C)N2CCCCC2)CC[C@@]1(O)C1CC1,-5.05%
2,CC(C)CC(NC(=O)Nc1ccc(F)c(Cl)c1)C(=O)O (stereo unspecified),-8.78%
3,CCCc1nnc(N2CCN(c3ccccc3Cl)CC2)o1,-0.178%
4,Cc1cnc(N2C[C@H]3CN(Cc4csc(C)n4)C(=O)[C@H]3C2)nc1,-9.66%
5,Cc1cnn(CC2CCCN2C(=O)Cn2nc(C)c(Cl)c2C)c1 (stereo unspecified),-1.94%
6,CC(C)c1nc2c(n1C)CCN(CCc1ccccn1)C2,-4.15%
7,Cc1nc(C)n(CC2CN(Cc3cccc(C#N)c3)CCO2)n1 (stereo unspecified),-24.6%
8,CC(C)S(=O)(=O)NCC(Cc1cccc(F)c1)N1CCNC1=O (stereo unspecified),-15.5%
9,NC(=O)[C@@H]1Cc2ccccc2CN1S(=O)(=O)N1CCCCC1,-1.22%
10,Cc1cc(NC(=O)NCC(C)N2CCOCC2)n(C)n1 (stereo unspecified),-6.14%
11,CN(C)c1ccc(CCNC(=O)NCc2ccc(N(C)C)nc2)cc1,-3.36%
12,Cc1nc(C)n(CC2CCCN(Cc3cccc(C(N)=O)c3)C2)n1 (stereo unspecified),-1.85%
13,NC(=O)N1CCC(C(=O)NCc2nncn2-c2ccccc2)CC1,1.01%
14,CCNCCc1nc2cc(F)ccc2[nH]1,-4.56%
15,NC(=O)C1CCN(C(=O)NCc2cccnc2OC2CCCC2)C1 (stereo unspecified),-5.81%
16,O=C(NCc1ccco1)[C@@]12CCO[C@@H]1CCN(CC1CCOCC1)C2,-1.64%
17,CN(C)CCN1CCN(Cc2cccs2)Cc2cccnc21,-0.769%
18,CN1CCCC(N(C)C(=O)c2ccc(NC(=O)c3ccc[nH]3)cc2)C1 (stereo unspecified),-0.19%
19,Cn1nc(-c2ccccc2NC(=O)c2cncc(Br)c2)ccc1=O,15.4%
20,CCOc1ncccc1C(=O)N1CCCC(n2nc(C)cc2C)C1 (stereo unspecified),-5.39%
21,c1ccc(Oc2ncccc2CNCc2ccccn2)cc1,-4.5%

row,SMILES,cytotoxicity at 70.5 h
1,CCN1CC(C(=O)NC(C)(C)CC(C)(C)C)CC1=O (stereo unspecified),-1.71%
2,CNc1cc(C)nc(N2CCC3(CC2)[C@H](O)C[C@@H]3OC)n1,-2.45%
3,CCOc1ccnc(N2CCN(C(=O)c3cn[nH]c3CC)CC2)n1,-3.19%
4,CN(Cc1cccc(C#N)c1)C(=O)C1CC(c2cccc(F)c2)=NO1 (stereo unspecified),-6.75%
5,Fc1cnc(N2CCc3nnc(COc4ccccn4)n3CC2)nc1,-3.38%
6,Cc1csc(N2CCN(CC(=O)Nc3nncs3)CC2C)n1 (stereo unspecified),-10%
7,COc1ccc2c(c1)OCC(Cc1ccc(C)nc1N)C2 (stereo unspecified),13.9%
8,CCCS(=O)(=O)N1CCc2nc(N3CCOCC3)nc(N(C)C)c2C1,26.5%
9,Cc1csc(C2CCCCN2C(=O)CCn2cncn2)n1 (stereo unspecified),33.9%
10,Cn1cccc1C(=O)N1CCn2cc(CNC(=O)CC3CC3)nc2C1,-10.2%
11,CN(Cc1ccco1)C[C@H]1OC[C@@H]2CCN(Cc3ccccn3)C[C@@H]21,-8.48%
12,CN(C)c1nc2c(c(=O)[nH]1)CCN(C(=O)c1c[nH]c(=O)c(Cl)c1)C2,-0.451%
13,O=C(c1ccco1)N1C[C@H]2CCCN(C(=O)c3ccsc3)[C@H]2C1,-16.2%
14,Cc1nc(CN2CCCC(N(C)CC(=O)Nc3cccnc3)C2)no1 (stereo unspecified),15.1%
15,CCN1Cc2c(C(=O)NC(C)C(C)C)ncn2-c2ccccc2S1(=O)=O (stereo unspecified),6.35%
16,CC(C)Nc1cc(N2CCC(n3cc(C4CCCC4)nn3)CC2)ncn1,-8.81%
17,COc1ccc2c(c1)OCC(CNC(=O)c1cnc(O)cn1)C2 (stereo unspecified),-3.99%
18,Cc1nc(CN2C[C@@H]3CN(C(=O)C4CC4)C[C@@H]3C2=O)cs1,27.3%
19,Cn1cnc2c1C(C(=O)N1CCOCC1)N(C(=O)c1ccccc1)CC2 (stereo unspecified),-4.08%
20,Cc1cc(NC(=O)CN2CCc3cncnc3C2)no1,25.7%
21,CC(=O)Nc1nc(C)c(S(=O)(=O)NCCc2ccccn2)s1,-3.16%

row,SMILES,cytotoxicity at 70.5 h
1,OCCOc1ccc(NCc2cccc3[nH]ccc23)cn1,-3.37%
2,CCCn1cnnc1CNC1CCSC1 (stereo unspecified),-7.63%
3,CC(C)n1nc2c(cc1=O)CN(c1ncnc3ccsc13)CC2,13.9%
4,O=C(c1nn(-c2ccccc2F)cc1O)N1CCCC1,-2.52%
5,CCOc1ccc(N2CCCN=C2NC(=O)c2ccc(Cl)cc2)cc1,-1.22%
6,COc1cccc2c3c(c(=O)[nH]c12)CCC(C)(C)O3,-5.31%
7,O=C(CSCC1CC1)N1CCCC2(CCC(=O)N(CC3CC3)C2)C1 (stereo unspecified),-25.9%
8,COc1ccccc1CNc1ncnc2c1NC(=O)CN2,-6.12%
9,Cc1cccc(C(=O)N2CC(=O)N(c3ccccc3Cl)CC2C)n1 (stereo unspecified),49.8%
10,CN(C)CCO[C@H]1CN(C(=O)c2cscn2)[C@@H]2COC[C@H]12,-14.3%
11,COc1nc2c(cc1C(=O)N1CCCCC1c1ccccn1)CCC2 (stereo unspecified),-6.36%
12,COc1cccc([C@@]2(O)CC[C@@H]3CN(C(=O)c4ccn(C)n4)C[C@@H]32)c1,-6.49%
13,CN(C)c1nc2sc(C(=O)N3CCN(C(=O)OC(C)(C)C)CC3)cc2s1,-8.07%
14,Cc1nc(-c2cncnc2C2CCCNC2)no1 (stereo unspecified),26.9%
15,c1cnn(CCNCCCOc2ccc3c(c2)OCO3)c1,0.993%
16,c1cnnc(N2CCCC2CNCc2nnc(C3CC3)o2)c1 (stereo unspecified),-3.19%
17,CC(Cn1cncn1)NC(=O)Nc1ccc(COC2CCCC2)cc1 (stereo unspecified),-1.86%
18,CC(C)NC(=O)c1ccc2c(c1)C(c1nc[nH]n1)CN2C (stereo unspecified),-8.61%
19,CCN(Cc1ccc2c(c1)OCCO2)C(=O)NCc1cc[nH]n1,-20.9%
20,Cc1ncc(CN2CCN(c3ccc4nncn4n3)C(C)C2)s1 (stereo unspecified),-11.1%
21,CC(C)(C)c1nc(CN2CCCC2c2nnc3ccccn23)no1 (stereo unspecified),-22.6%

row,SMILES,cytotoxicity at 70.5 h
1,COc1ncnc2c1CCN(C(=O)Cc1cccc(F)c1)CC2,-3.34%
2,COC(=O)c1cccc(NC(=O)CN2CCN(S(C)(=O)=O)CC2)c1,-9.51%
3,CC(C)c1nccn1-c1nccnc1C1CCCN1Cc1cccnc1 (stereo unspecified),-1.81%
4,Cc1ccc(-c2cc(CNC(=O)NC3CCCCNC3=O)on2)cc1 (stereo unspecified),-8.17%
5,COc1cccc(-c2cccc(CN3C[C@@H]4CC[C@H](C3)N(C)C4=O)c2)c1,14.8%
6,CC(C)CC(=O)NCCn1nc(C2CCNC2)c2cccnc21 (stereo unspecified),-2.13%
7,COCc1nn(C(C)C)c2c1CCN(Cc1ccsc1)C2,-5.82%
8,CCn1nc(C)c2ncnc(N(C)C)c21,-3.05%
9,CCC(CNC(=O)Cn1ccnc1)Oc1cccc(F)c1 (stereo unspecified),21.1%
10,CS(=O)(=O)N1CCOC2(CCN(c3ncccn3)CC2)c2ccccc21,-1.05%
11,Cc1cnn(CCNCc2csc(-c3ccsc3)n2)c1,-6.72%
12,CCOCCN1CCN(c2ccc(CN(C)C)cn2)CC1,-5.47%
13,c1ccc2oc(CN3CCOC(Cn4cccn4)C3)nc2c1 (stereo unspecified),-0.847%
14,c1nc(N2CCCC2)cnc1C1CCNCC1,-6.46%
15,O=C(CCc1ccncc1)NCCOc1ncc(Cl)cc1Cl,-6.13%
16,CCc1nnc(CN2CCc3[nH]c(-c4ccc(OC)cc4)nc3C2)o1,-9.04%
17,COc1ccc2c(c1)nc1n2[C@@H](CNC(=O)c2cccnc2)COC1,4.29%
18,CCOc1ccc(NC(C)C(=O)NCCc2cccs2)cc1CO (stereo unspecified),-3.5%
